Reference: ChEMBL document CHEMBL4673209, “Discovery of a novel potent GPR40 full agonist” (Bioorg Med Chem Lett, 2018)
pEC50, pIC50: −log10 of the molar value. Activity calls are given as the source filed them. The calls are words filed in the database; no cut-off is given here.

Experiments:
[1] = Half life in iv dosed rat; type: ADME, organism-based; details: in vivo
[2] = test system: Rattus norvegicus; test: Anti-glycemic activity in fasted Sprague-Dawley ZDF rat assessed as reduction in post-prandial hyperglycemia by measuring AUC(0 to 2 hrs) for blood glucose at 3 mg/kg administered daily for 8 days and measured on day 8 by OGTT; type: functional; details: time 8 day
[3] = Half life in iv dosed dog; type: ADME, organism-based, Canis lupus familiaris; details: in vivo
[4] = Intrinsic clearance in dog assessed as half-life at 1 uM; type: ADME, Canis lupus familiaris
[5] = Cmax in dog; type: ADME, Canis lupus familiaris; details: in vivo
[6] = target: T1, Peroxisome proliferator-activated receptor gamma (Homo sapiens) (UniProt P37231); test: Agonist activity at PPARgamma (unknown origin); type: cell-based; details: HEK293
T1 sequence (whole entry): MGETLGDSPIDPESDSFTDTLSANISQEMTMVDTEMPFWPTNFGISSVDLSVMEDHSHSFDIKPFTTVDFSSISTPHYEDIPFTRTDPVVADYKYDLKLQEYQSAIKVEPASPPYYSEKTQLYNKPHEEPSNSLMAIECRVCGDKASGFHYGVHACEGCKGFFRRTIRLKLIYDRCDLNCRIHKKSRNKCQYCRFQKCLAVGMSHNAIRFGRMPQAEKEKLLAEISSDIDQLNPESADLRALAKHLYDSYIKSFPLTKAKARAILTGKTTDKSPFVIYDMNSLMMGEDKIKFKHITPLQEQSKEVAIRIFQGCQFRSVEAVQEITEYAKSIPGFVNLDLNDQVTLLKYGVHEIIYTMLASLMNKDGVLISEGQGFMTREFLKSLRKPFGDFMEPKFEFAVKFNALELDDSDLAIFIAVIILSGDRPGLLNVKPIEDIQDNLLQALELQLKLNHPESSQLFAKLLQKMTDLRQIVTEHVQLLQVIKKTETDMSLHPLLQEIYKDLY

[7] = Drug metabolism in rat assessed as (3S)-3-cyclopropyl-3-(3-((5-(5-fluoro-2-hydroxypyridin-4-yl)-6-isobutylpyrazin-2-yl)methoxy)phenyl)propanoic acid metabolite formation by MetID studies; type: ADME
[8] = target: T2, Peroxisome proliferator-activated receptor alpha (Homo sapiens) (UniProt Q07869); test: Agonist activity at PPARalpha (unknown origin)
T2 sequence (whole entry): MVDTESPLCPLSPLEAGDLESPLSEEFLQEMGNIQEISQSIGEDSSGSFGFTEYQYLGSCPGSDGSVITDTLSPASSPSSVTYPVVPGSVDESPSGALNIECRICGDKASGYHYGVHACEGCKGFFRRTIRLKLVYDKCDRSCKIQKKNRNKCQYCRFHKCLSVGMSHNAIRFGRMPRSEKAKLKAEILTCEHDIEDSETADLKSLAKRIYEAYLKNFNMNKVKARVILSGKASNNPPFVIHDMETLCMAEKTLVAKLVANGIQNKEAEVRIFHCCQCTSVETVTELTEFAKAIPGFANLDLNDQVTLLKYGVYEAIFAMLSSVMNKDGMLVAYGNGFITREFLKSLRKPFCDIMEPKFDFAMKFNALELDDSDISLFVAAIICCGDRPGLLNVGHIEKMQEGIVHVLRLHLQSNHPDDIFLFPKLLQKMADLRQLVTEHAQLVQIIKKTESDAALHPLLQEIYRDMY

[9] = target: Free fatty acid receptor 1 (Rattus norvegicus) (UniProt Q8K3T4); test: Agonist activity at GPR40 in rat INS1 (832/13) cells assessed as induction of glucose-stimulated insulin secretion in presence of 10 mM glucose; type: cell-based; details: INS-1 832/13, filed as agonist
[10] = Apparent permeability from apical to basolateral side in dog MDCK-MDR1 cells; type: ADME, cell-based, Canis lupus familiaris
[11] = Clearance in rat; type: ADME; details: in vivo
[12] = target: Cytochrome P450 2D6 (Homo sapiens, UniProt P10635); test: Inhibition of CYP2D6 (unknown origin); type: ADME
[13] = target: Free fatty acid receptor 1 (Rattus norvegicus) (UniProt Q8K3T4); test: Agonist activity at rat GPR40 receptor expressed in CHOK1 cells assessed as induction of IP1 accumulation at 10 uM relative to AM1638; type: functional, cell-based; details: CHO-K1, filed as agonist
[14] = target: T3, Free fatty acid receptor 1 (Rattus norvegicus, UniProt Q8K3T4); test: Agonist activity at rat GPR40 receptor expressed in CHOK1 cells assessed as induction of IP1 accumulation; type: functional, cell-based, CHO-K1
[15] = target: Free fatty acid receptor 1 (Homo sapiens, UniProt O14842); test: Agonist activity at human GPR40 receptor expressed in CHOK1 cells assessed as induction of IP1 accumulation at 10 uM; type: functional, cell-based; details: CHO-K1, filed as agonist
[16] = test system: Rattus norvegicus; test: Anti-glycemic activity in fasted Sprague-Dawley ZDF rat assessed as increase in insulin secretion by measuring insulin level in plasma at 1 mg/kg administered 30 mins prior to glucose challenge measured after 140 mins by OGTT; type: functional; details: time 170 min, 2.833 h
[17] = target: T3, Free fatty acid receptor 1; test: Agonist activity at rat GPR40 transfected in HEK293 cells assessed as increase in intracellular calcium level incubated for 1 hr by Fluo-8 dye based fluorescence analysis; type: functional, cell-based
[18] = Apparent permeability across apical to basolateral side in human Caco2 cells; type: ADME, cell-based; details: Caco-2
[19] = Clearance in cynomolgus monkey; type: ADME, Macaca fascicularis; details: in vivo

T3 sequence (Q8K3T4 whole entry): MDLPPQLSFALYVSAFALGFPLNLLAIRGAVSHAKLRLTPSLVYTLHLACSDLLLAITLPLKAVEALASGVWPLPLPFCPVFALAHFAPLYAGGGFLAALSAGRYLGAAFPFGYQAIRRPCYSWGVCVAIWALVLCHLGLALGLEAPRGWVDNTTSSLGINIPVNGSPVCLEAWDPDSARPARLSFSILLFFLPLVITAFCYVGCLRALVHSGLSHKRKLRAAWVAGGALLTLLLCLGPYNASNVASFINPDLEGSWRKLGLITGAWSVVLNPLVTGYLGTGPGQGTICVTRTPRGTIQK
Chain of Free fatty acid receptor 1 (Rattus norvegicus) (Q8K3T4 whole entry): as above
Chain of Free fatty acid receptor 1 (Homo sapiens, UniProt O14842) (O14842 whole entry): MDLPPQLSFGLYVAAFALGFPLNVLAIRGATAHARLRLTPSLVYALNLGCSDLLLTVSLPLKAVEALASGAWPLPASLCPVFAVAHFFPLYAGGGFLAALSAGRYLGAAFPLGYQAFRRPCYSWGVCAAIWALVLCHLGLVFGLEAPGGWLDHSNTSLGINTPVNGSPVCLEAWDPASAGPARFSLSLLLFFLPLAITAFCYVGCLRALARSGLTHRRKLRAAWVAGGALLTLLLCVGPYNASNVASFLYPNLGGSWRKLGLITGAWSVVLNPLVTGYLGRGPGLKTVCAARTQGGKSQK
Chain of Cytochrome P450 2D6 (P10635 whole entry): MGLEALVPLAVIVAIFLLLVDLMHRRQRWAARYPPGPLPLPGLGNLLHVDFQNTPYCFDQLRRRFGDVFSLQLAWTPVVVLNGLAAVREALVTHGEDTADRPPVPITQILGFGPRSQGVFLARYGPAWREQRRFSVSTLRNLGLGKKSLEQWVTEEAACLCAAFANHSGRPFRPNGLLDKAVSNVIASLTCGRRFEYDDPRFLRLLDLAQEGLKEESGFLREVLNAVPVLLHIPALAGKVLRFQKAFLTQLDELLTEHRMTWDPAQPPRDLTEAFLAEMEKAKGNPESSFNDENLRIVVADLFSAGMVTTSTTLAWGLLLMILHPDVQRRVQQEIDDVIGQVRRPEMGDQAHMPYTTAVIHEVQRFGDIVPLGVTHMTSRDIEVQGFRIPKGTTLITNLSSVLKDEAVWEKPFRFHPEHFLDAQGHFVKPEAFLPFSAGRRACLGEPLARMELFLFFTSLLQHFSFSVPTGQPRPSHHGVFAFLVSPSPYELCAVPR

`COc1cc(-c2ncc(COc3cccc([C@@H](CC(=O)O)C4CC4)c3)nc2CC(C)C)c(F)cn1` gave a half-life [1] of 2.71 h, an Activity [2] of 16769 ng/mL.hr and a half-life [3] of 4.82 h. The half-life at 1 µM [4] was 1.38 h, the Cmax [5] was 1550 ng/mL and the Activity [6] was “inactive”. For the same compound, the Drug metabolism [7] was “Metabolite_Detected”, the Activity [8] was “inactive” and the Activity [9] was “Active”. The Papp A→B [10] was 50 ×10⁻⁶ cm/s, the clearance [11] was 2.37 mL/min/kg and the pIC50 [12] was < 5.00. For the same compound, the Activity [13] was 95%, the pEC50 [14] was 6.26 and the Activity [15] was 1040 nM. For the same compound, the Activity [16] was 1405 ng/mL, the pEC50 [17] was 7.77 and the Papp A→B [18] was 40 ×10⁻⁶ cm/s. The clearance [19] was 2.19 mL/min/kg.
